Patent US11345699B2, “Apoptosis signal-regulating kinase 1 inhibitors and methods of use thereof” (Enanta Pharmaceuticals, Inc., priority 2018, dated 2022)

Biological target: ASK1 (Homo sapiens (Human), UniProt Q99683)
Assay: HTRF KinEASE Assay (TR-FRET), inhibition of ASK1
Assay type: biochemical
Conditions: ASK1 kinase, 100 μM ATP, 1 μM STK3 peptide substrate, compound 0 to 10 μM
Procedure: Assay HTRF® KinEASE™ Assay
ASK1 was purchased from Thermofisher (Catalogue #PV4011), ATP was purchased from Sigma (Catalogue #A7699), HTRF® KinEASE™ Assay System was obtained from Cisbio (Bedford, Mass.). ½ Area plate was purchased from Perkin Elmer (Catalogue ##6005560). HTRF® KinEASE™-STK is a generic method for measuring serine/threonine kinase activities using a time-resolved fluorescence resonance energy transfer (TR-FRET) immunoassay. The IC50 value for each compound was determined in the presence of compound (various concentration from 0 to 10 μM) and a fixed amount of ATP and peptide substrates. The test compound, 1 μM STK3 peptide substrate, and […] of ASK1 kinase are incubated with kinase reaction buffer containing 50 mM HEPES Ph 7.5, 0.01% BRIJ-35, 10 mM MgCl2, and 1 mM EGTA for 30 minutes. 100 μM ATP is added to start kinase reaction and incubated for 3 hours. The STK3-antibody labeled with Eu^3+-Cryptate and 125 nM streptavidin-XL665 are mixed in a single addition with stop reagents provided by the Cisbio kit used to stop the kinase reaction. Fluorescence is detected using an Envision Multilabeled 2014 reader from PerkinElmer. The Fluorescence is measured at 615 nm (Cryptate) and 665 nm (XL665) and a ratio of 665 nm/615 nm is calculated for each well. The resulting TR-FRET is proportional to the phosphorylation level. Staurosporine was used as the positive control. IC50 was determined by Xlfit 5.3.
By using above method, the inhibition of ASK1 was evaluated for the compounds of Formula (I). Example numbers correspond to those in Table 5.

ASK1, sequence (Q99683 whole entry): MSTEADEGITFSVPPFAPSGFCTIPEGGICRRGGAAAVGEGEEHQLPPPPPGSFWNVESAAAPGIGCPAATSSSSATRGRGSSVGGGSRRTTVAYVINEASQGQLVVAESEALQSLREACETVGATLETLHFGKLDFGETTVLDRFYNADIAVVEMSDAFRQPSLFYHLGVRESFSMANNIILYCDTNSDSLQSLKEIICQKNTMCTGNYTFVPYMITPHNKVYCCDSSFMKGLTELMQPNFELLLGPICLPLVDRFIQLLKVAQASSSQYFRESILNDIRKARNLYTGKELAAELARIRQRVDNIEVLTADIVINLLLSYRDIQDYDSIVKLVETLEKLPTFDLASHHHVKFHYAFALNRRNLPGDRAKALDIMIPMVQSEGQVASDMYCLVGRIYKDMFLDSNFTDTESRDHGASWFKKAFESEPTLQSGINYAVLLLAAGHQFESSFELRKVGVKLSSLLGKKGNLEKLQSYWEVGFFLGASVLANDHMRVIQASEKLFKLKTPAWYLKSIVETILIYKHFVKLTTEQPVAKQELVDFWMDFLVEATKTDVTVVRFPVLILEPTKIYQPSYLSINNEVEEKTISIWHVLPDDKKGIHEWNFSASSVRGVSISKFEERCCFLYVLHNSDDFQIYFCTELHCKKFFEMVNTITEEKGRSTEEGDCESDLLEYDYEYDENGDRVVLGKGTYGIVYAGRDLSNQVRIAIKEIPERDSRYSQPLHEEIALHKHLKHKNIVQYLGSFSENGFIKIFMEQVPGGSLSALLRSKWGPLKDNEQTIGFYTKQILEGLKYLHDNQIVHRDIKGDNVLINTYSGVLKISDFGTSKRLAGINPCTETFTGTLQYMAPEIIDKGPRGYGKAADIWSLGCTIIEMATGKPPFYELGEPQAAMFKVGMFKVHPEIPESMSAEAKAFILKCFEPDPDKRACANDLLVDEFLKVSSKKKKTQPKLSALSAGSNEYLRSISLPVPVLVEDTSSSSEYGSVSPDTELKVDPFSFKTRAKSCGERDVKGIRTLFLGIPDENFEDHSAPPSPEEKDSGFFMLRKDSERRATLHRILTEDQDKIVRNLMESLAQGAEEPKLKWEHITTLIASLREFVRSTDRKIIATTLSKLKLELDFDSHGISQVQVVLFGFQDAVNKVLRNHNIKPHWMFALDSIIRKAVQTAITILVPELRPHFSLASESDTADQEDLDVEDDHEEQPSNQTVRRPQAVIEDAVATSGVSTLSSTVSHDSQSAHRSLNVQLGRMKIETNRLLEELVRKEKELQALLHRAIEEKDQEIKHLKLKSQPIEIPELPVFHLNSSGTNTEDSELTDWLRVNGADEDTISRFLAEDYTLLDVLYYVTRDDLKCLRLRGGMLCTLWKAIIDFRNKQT

| SMILES | IC50 |
| --- | --- |
| CCOC(=O)N1CCc2cnc(C(=O)Nc3cccc(-c4nnnn4[C@H]4CCC[C@@H]4O)n3)cc2C1 [Example 145] | 10 to 100 nM |
| CCOC(=O)N1CCc2cnc(C(=O)Nc3cccc(-c4nnnn4[C@@H]4CCC[C@@H]4O)n3)cc2C1 [Example 146] | 10 to 100 nM |
| COc1cc2c(cc1C(=O)Nc1cccc(-c3nnnn3[C@H](C)CO)n1)CN(c1ncc(F)cn1)CC2 [Example 152, (R)-2-(5-fluoropyrimidin-2-yl)-N-(6-(1-(1-hydroxypropan-2-yl)-1H-tetrazol-5-yl)pyridin-2-yl)-6-methoxy-1,2,3,4-tetrahydroisoquinoline-7-carboxamide] | 1.25 to 10 nM |
| COc1cc2c(cc1C(=O)Nc1cccc(-c3nnnn3[C@H](C)CO)n1)CN(c1ncns1)CC2 [Example 153] | 1.25 to 10 nM |
| COc1cc2c(cc1C(=O)Nc1cccc(-c3nnnn3[C@H](C)CO)n1)CN(c1cnc(F)cn1)CC2 [Example 154, (R)-2-(5-fluoropyrazine-2-yl)-N-(6-(1-(1-hydroxypropan-2-yl)-1H-tetrazol-5-yl)pyridin-2-yl)-6-methoxy-1,2,3,4-tetrahydroisoquinoline-7-carboxamide] | 1.25 to 10 nM |

Other lines, results leading:

| IC50 | SMILES |
| --- | --- |
| 1.25 to 10 nM | COc1cc2c(cc1C(=O)Nc1cccc(-c3nnnn3[C@H](C)CO)n1)CN(C(=O)OC1CCOC1)CC2 (stereo partly drawn) [Example 143] |
| < 1.25 nM | COc1cc2c(cc1C(=O)Nc1cccc(-c3nnnn3[C@H](C)CO)n1)CN(C(=O)N1CC[C@@H](O)C1)CC2 [Example 144, N-(6-(1-((R)-1-hydroxypropan-2-yl)-1H-tetrazol-5-yl)pyridin-2-yl)-2-((R)-3-hydroxypyrrolidine-1-carbonyl)-6-methoxy-1,2,3,4-tetrahydroisoquinoline-7-carboxamide] |
| < 1.25 nM | CONC(=O)N1CCc2cc(OC)c(C(=O)Nc3cccc(-c4nnnn4[C@H](C)CO)n3)cc2C1 [Example 147] |
| < 1.25 nM | COc1cc2c(cc1C(=O)Nc1cccc(-c3nncn3C(C)C)n1)CN(C(=O)CN1CCOC1=O)CC2 [Example 148] |
| < 1.25 nM | COc1cc2c(cc1C(=O)Nc1cccc(-c3nnnn3[C@H](C)CO)n1)CN(C(=O)CN1CCOC1=O)CC2 [Example 149] |
| < 1.25 nM | COc1cc2c(cc1C(=O)Nc1cccc(-c3nnnn3[C@H](C)CO)n1)CN(c1cccnc1)CC2 [Example 150, (R)—N-(6-(1-(1-hydroxypropan-2-yl)-1H-tetrazol-5-yl)pyridin-2-yl)-6-methoxy-2-(pyridin-3-yl)-1,2,3,4-tetrahydroisoquinoline-7-carboxamide] |
| < 1.25 nM | COc1cc2c(cc1C(=O)Nc1cccc(-c3nncn3C(C)C)n1)CN(c1cncnc1)CC2 [Example 151, N-(6-(4-isopropyl-4H-1,2,4-triazol-3-yl)pyridin-2-yl)-6-methoxy-2-(pyrimidin-5-yl)-1,2,3,4-tetrahydroisoquinoline-7-carboxamide] |
